33 compounds from patent US20100041892A1, “Therapeutic agent for diabetes” (priority 2005, published 2010) can be followed below.

Usually melting point stands for the temperature of the solid-liquid transition. `CC(C)CCS(=O)(=O)NC(=O)CCc1cc(OC(C)C)nn1Cc1ccc(Cl)cc1Cl` [Example 92, 3-[1-(2,4-dichlorobenzyl)-3-isopropoxy-1H-pyrazol-5-yl]-N-[(3-methylbutyl)sulfonyl]propanamide] returned a melting point of 143 to 145 °C.

In turn, `CCCCCS(=O)(=O)NC(=O)/C=C/c1cc(OCCCC)nn1Cc1ccc(Cl)cc1Cl` [Example 98, (2E)-3-[3-butoxy-1-(2,4-dichlorobenzyl)-1H-pyrazol-5-yl]-N-(pentylsulfonyl)acrylamide] gave a melting point of 95 to 98 °C.

`CCCCOc1cc(/C=C/C(=O)NS(=O)(=O)CCC(C)C)n(Cc2ccc(Cl)cc2Cl)n1` [Example 99, (2E)-3-[3-butoxy-1-(2,4-dichlorobenzyl)-1H-pyrazol-5-yl]-N-[(3-methylbutyl)sulfonyl]acrylamide]: the melting point lay in the range of 119 to 120 °C.

`CCCCCS(=O)(=O)NC(=O)/C=C/c1cc(OCCCC)nn1Cc1ccc(C(F)(F)F)cc1` [Example 103, (2E)-3-{3-butoxy-1-[4-(trifluoromethyl)benzyl]-1H-pyrazol-5-yl}-N-(pentylsulfonyl)acrylamide]: the melting point is 159 to 160 °C.

For the compound `CCCCCS(=O)(=O)NC(=O)CCc1cc(OCc2nnc(C)o2)nn1Cc1ccc(Cl)cc1Cl` [Example 105, 3-{1-(2,4-dichlorobenzyl)-3-[(5-methyl-1,3,4-oxadiazol-2-yl)methoxy]-1H-pyrazol-5-yl}-N-(pentylsulfonyl)propanamide], the melting point lay in the range of 156 to 158 °C.

For the compound `CCCCCS(=O)(=O)NC(=O)/C=C/c1cc(OCCCC)nn1Cc1ccc(C(F)(F)F)cc1Cl` [Example 106, (2E)-3-{3-butoxy-1-[2-chloro-4-(trifluoromethyl)benzyl]-1H-pyrazol-5-yl}-N-(pentylsulfonyl)acrylamide], the melting point lay in the range of 130 to 132 °C.

`CCCCCS(=O)(=O)NC(=O)CCc1cc(OCCCC)nn1Cc1ccc(C(F)(F)F)cc1Cl` [Example 107, 3-{3-butoxy-1-[2-chloro-4-(trifluoromethyl)benzyl]-1H-pyrazol-5-yl}-N-(pentylsulfonyl)propanamide] showed a melting point of 131 to 133 °C.

Take `CCCCCS(=O)(=O)NC(=O)/C=C/c1cc(OCCOC)nn1Cc1ccc(Cl)cc1Cl` [Example 109, (2E)-3-[1-(2,4-dichlorobenzyl)-3-(2-methoxyethoxy)-1H-pyrazol-5-yl]-N-(pentylsulfonyl)acrylamide]: the melting point fell in the range of 82 to 85 °C.

Regarding `COCCOc1cc(/C=C/C(=O)NS(=O)(=O)CCC(C)C)n(Cc2ccc(Cl)cc2Cl)n1` [Example 110, (2E)-3-[1-(2,4-dichlorobenzyl)-3-(2-methoxyethoxy)-1H-pyrazol-5-yl]-N-[(3-methylbutyl)sulfonyl]acrylamide], the melting point was in the range of 110 to 114 °C.

Turning to `CCCCCS(=O)(=O)NC(=O)/C=C/c1cc(OCC2(C)COC2)nn1Cc1ccc(C(F)(F)F)cc1Cl` [Example 113, (2E)-3-{1-[2-chloro-4-(trifluoromethyl)benzyl]-3-[(3-methyloxetan-3-yl)methoxy]-1H-pyrazol-5-yl}-N-(pentylsulfonyl)acrylamide], the melting point is 144 to 147 °C.

Compound `COCCCS(=O)(=O)NC(=O)/C=C/c1cc(OC(C)C)nn1Cc1ccc(C(F)(F)F)cc1Cl` [Example 115, (2E)-3-{1-[2-chloro-4-(trifluoromethyl)benzyl]-3-isopropoxy-1H-pyrazol-5-yl}-N-[(3-methoxypropyl)sulfonyl]acrylamide] came in with a melting point of 138 to 139 °C.

Compound `CCCCCS(=O)(=O)NC(=O)/C=C/c1cc(OC2CCOCC2)nn1Cc1ccc(Cl)cc1Cl` [Example 116, (2E)-3-[1-(2,4-dichlorobenzyl)-3-(tetrahydro-2H-pyran-4-yloxy)-1H-pyrazol-5-yl]-N-(pentylsulfonyl)acrylamide] showed a melting point of 154 to 157 °C.

Turning to `CC(C)CCS(=O)(=O)NC(=O)/C=C/c1cc(OC2CCOCC2)nn1Cc1ccc(Cl)cc1Cl` [Example 117, (2E)-3-[1-(2,4-dichlorobenzyl)-3-(tetrahydro-2H-pyran-4-yloxy)-1H-pyrazol-5-yl]-N-[(3-methylbutyl)sulfonyl]acrylamide], the melting point was in the range of 143 to 144 °C.

Compound `CC(C)CCS(=O)(=O)NC(=O)/C=C/c1cc(C2CC2)nn1Cc1ccc(C(F)(F)F)cc1Cl` [Example 118, (2E)-3-{1-[2-chloro-4-(trifluoromethyl)benzyl]-3-cyclopropyl-1H-pyrazol-5-yl}-N-[(3-methylbutyl)sulfonyl]acrylamide] came in with a melting point of 145 to 147 °C.

In turn, `COCCCS(=O)(=O)NC(=O)/C=C/c1cc(OCC2CC2)nn1Cc1ccc(C(F)(F)F)cc1Cl` [Example 119, (2E)-3-[1-[2-chloro-4-(trifluoromethyl)benzyl]-3-(cyclopropylmethoxy)-1H-pyrazol-5-yl]-N-[(3-methoxypropyl)sulfonyl]acrylamide] gave a melting point of 137 to 138 °C.

The compound `COCCCS(=O)(=O)NC(=O)CCc1cc(OCC2CC2)nn1Cc1ccc(C(F)(F)F)cc1Cl` [Example 120, 3-[1-[2-chloro-4-(trifluoromethyl)benzyl]-3-(cyclopropylmethoxy)-1H-pyrazol-5-yl]-N-[(3-methoxypropyl)sulfonyl]propanamide] had a melting point of 152 to 154 °C.

`CCCCCS(=O)(=O)NC(=O)CCc1cc(C(C)(C)C)nn1Cc1ccc(C(F)(F)F)cc1Cl` [Example 122, 3-{3-tert-butyl-1-[2-chloro-4-(trifluoromethyl)benzyl]-1H-pyrazol-5-yl}-N-(pentylsulfonyl)propanamide] had a melting point of 136 to 137 °C.

`COCCCS(=O)(=O)NC(=O)CCc1cc(C(C)(C)C)nn1Cc1ccc(C(F)(F)F)cc1Cl` [Example 123, 3-{3-tert-butyl-1-[2-chloro-4-(trifluoromethyl)benzyl]-1H-pyrazol-5-yl}-N-[(3-methoxypropyl)sulfonyl]propanamide] came in with a melting point of 149 to 150 °C.

For `CC(C)Oc1cc(/C=C/S(=O)(=O)NC(=O)OC(C)(C)C)n(Cc2ccc(Cl)cc2Cl)n1` [Example 124, tert-butyl ({(E)-2-[1-(2,4-dichlorobenzyl)-3-isopropoxy-1H-pyrazol-5-yl]vinyl}sulfonyl)carbamate], the melting point was in the range of 152 to 153 °C.

`CCCCCC(=O)NS(=O)(=O)/C=C/c1cc(OC(C)C)nn1Cc1ccc(Cl)cc1Cl` [Example 125, N-({(E)-2-[1-(2,4-dichlorobenzyl)-3-isopropoxy-1H-pyrazol-5-yl]vinyl}sulfonyl)hexanamide] had a melting point of 73 to 75 °C.

As for `CCCCCC(=O)NS(=O)(=O)CCc1cc(OC(C)C)nn1Cc1ccc(Cl)cc1Cl` [Example 126, N-({2-[1-(2,4-dichlorobenzyl)-3-isopropoxy-1H-pyrazol-5-yl]ethyl}sulfonyl)hexanamide], the melting point lay in the range of 107 to 108 °C.

`CCCCOc1cc(/C=C/S(=O)(=O)NC(=O)OC(C)(C)C)n(Cc2ccc(Cl)cc2Cl)n1` [Example 127, tert-butyl ({(E)-2-[3-butoxy-1-(2,4-dichlorobenzyl)-1H-pyrazol-5-yl]vinyl}sulfonyl)carbamate] displayed a melting point of 152 to 153 °C.

`CCCCCC(=O)NS(=O)(=O)CCc1cc(OCCCC)nn1Cc1ccc(Cl)cc1Cl` [Example 128, N-({2-[3-butoxy-1-(2,4-dichlorobenzyl)-1H-pyrazol-5-yl]ethyl}sulfonyl)hexanamide] gave a melting point of 90 to 92 °C.

`CCCCOC(=O)NS(=O)(=O)/C=C/c1cc(OCCCC)nn1Cc1ccc(Cl)cc1Cl` [Example 130, butyl ({(E)-2-[3-butoxy-1-(2,4-dichlorobenzyl)-1H-pyrazol-5-yl]vinyl}sulfonyl)carbamate] registered a melting point of 137 to 138 °C.

Compound `CCCCCC(=O)NS(=O)(=O)/C=C/c1cc(OCCCC)nn1Cc1ccc(Cl)cc1Cl` [Example 131, N-({(E)-2-[3-butoxy-1-(2,4-dichlorobenzyl)-1H-pyrazol-5-yl]vinyl}sulfonyl)hexanamide] came in with a melting point of 117 to 119 °C.

On to `CCCCOc1cc(CCS(=O)(=O)NC(=O)OCCC)n(Cc2ccc(Cl)cc2Cl)n1` [Example 132, propyl ({2-[3-butoxy-1-(2,4-dichlorobenzyl)-1H-pyrazol-5-yl]ethyl}sulfonyl)c arbamate], for which the melting point is 92 to 94 °C.

In turn, `CCCCOc1cc(CCS(=O)(=O)NC(=O)OCC(C)C)n(Cc2ccc(Cl)cc2Cl)n1` [Example 133, isobutyl ({2-[3-butoxy-1-(2,4-dichlorobenzyl)-1H-pyrazol-5-yl]ethyl}sulfonyl)carbamate] gave a melting point of 114 to 116 °C.

The compound `CCCCOc1cc(CCS(=O)(=O)NC(=O)OCCOC)n(Cc2ccc(Cl)cc2Cl)n1` [Example 134, 2-methoxyethyl ({2-[3-butoxy-1-(2,4-dichlorobenzyl)-1H-pyrazol-5-yl]ethyl}sulfonyl)carbamate] showed a melting point of 82 to 86 °C.

`CCCCCOC(=O)NS(=O)(=O)CCc1cc(OCCCC)nn1Cc1ccc(Cl)cc1Cl` [Example 135, pentyl ({2-[3-butoxy-1-(2,4-dichlorobenzyl)-1H-pyrazol-5-yl]ethyl}sulfonyl)carbamate] displayed a melting point of 91 to 93 °C.

`CCCCOc1cc(CCS(=O)(=O)NC(=O)OCc2ccccc2)n(Cc2ccc(Cl)cc2Cl)n1` [Example 136, benzyl ({2-[3-butoxy-1-(2,4-dichlorobenzyl)-1H-pyrazol-5-yl]ethyl}sulfonyl)carbamate]: the melting point is 99 to 101 °C.

`C=CCOC(=O)NS(=O)(=O)CCc1cc(OCCCC)nn1Cc1ccc(Cl)cc1Cl` [Example 137, allyl ({2-[3-butoxy-1-(2,4-dichlorobenzyl)-1H-pyrazol-5-yl]ethyl}sulfonyl)carbamate] showed a melting point of 94 to 95 °C.

For `CCCCOc1cc(CCS(=O)(=O)NC(=O)OCc2ccccc2)n(Cc2ccc(Cl)cc2Cl)n1` [Example 138, benzyl ({2-[3-butoxy-1-(2,4-dichlorobenzyl)-1H-pyrazol-5-yl]ethyl}sulfonyl)carbamate], the melting point lay within 92 to 95 °C.

Turning to `CCCCOc1cc(CCS(=O)(=O)NC(=O)OC(C)C)n(Cc2ccc(Cl)cc2Cl)n1` [Example 139, isopropyl ({2-[3-butoxy-1-(2,4-dichlorobenzyl)-1H-pyrazol-5-yl]ethyl}sulfonyl)carbamate], the melting point lay within 120 to 121 °C.
